From patent publication US12030835B2, “Substituted amide compounds useful as farnesoid X receptor modulators” (BRISTOL-MYERS SQUIBB COMPANY, priority 2019, dated 2024)
pEC50: −log10 of the molar value.

target: T1, human FXR (Homo sapiens, UniProt Q96RI1); assay: transient human FXR/Gal4-luciferase reporter assay; format: cell-based; details: Gal4-hFXR (ligand binding domain) fusion transiently transfected in HEK293 Gal4-luciferase reporter cells; overnight incubation; response as percentage of 8 μM GW-4064 control
T1 construct: expressed in transfected cells
T1 sequence (Q96RI1 262-486 limits assumed): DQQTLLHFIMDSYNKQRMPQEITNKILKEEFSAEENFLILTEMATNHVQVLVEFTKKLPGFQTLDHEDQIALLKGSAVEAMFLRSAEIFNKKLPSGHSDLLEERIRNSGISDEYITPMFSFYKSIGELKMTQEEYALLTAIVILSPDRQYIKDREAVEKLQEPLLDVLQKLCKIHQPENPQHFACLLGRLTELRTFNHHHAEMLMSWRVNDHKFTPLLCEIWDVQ
Procedure: A Gal4-hFXR fusion construct reporter system was used as the primary assay to characterize compound activity. A construct including 5 copies of the Gal4 promoter response element upstream of a firefly luciferase reporter cDNA was stably expressed in HEK293 cells. This reporter cell line was maintained in Dulbecco's Modified Eagle's medium (DMEM; Gibco) supplemented with 1% penicillin-streptomycin (P/S) solution, 500 μg/ml Zeocin and 10% charcoal/dextran-treated fetal bovine serum (cs-FBS) at 37° C. in a humidified 5% CO2 atmosphere. Another plasmid was constructed in which the human cytomegalovirus promoter in the pcDNA3.1 vector directs the expression of the cDNA encoding a fusion protein comprised of the DNA binding domain from the Gal4 transcription factor fused to the ligand binding domain from human FXR.
The day prior to transfection, the reporter cells in culture are detached from the plate with trypsin and plated into a T75 flask at a sufficient density to achieve approximately 90% confluence the next morning. The transfection reagents are prepared by separately diluting 25 μg of the pcDNA3.1-Gal4-FXR plasmid into 1.87 mL of Opti-MEM (Thermo-Fisher), and 40 μL of Lipofectamine 2000 (Thermo-Fisher) into 1.87 mL of Opti-MEM, and then adding the diluted DNA solution into the diluted Lipofectamine 2000 solution and incubating at room temperature for 15-20 minutes. The mixture is further diluted with 10 ml of a solution comprised of DMEM, 10% cs-FBS, and 1% P/S immediately prior to transferring to the cells. The maintenance culture media is aspirated from the cells and the final transfection mixture is added before the cells are incubated overnight at 37° C. in a humidified 5% CO2 atmosphere. This protocol can be scaled up, and the transiently transfected cells can be cryopreserved in an assay-ready format.
For compound testing, 100 nL of the compounds (serial dilutions in DMSO) are dispensed with an Echo acoustic dispenser (Labcyte) into the wells of a Corning/Costar clear bottom 384-well white plate. The transfected cells are harvested, counted, and diluted such that 10-25,000 cells in 25 μL are plated into each well of the 384-well compound assay plate. The compound-treated cells are incubated overnight at 37° C. in a humidified 5% CO2 atmosphere. The next morning 25 μL of Steady-Glo (Promega) are added to each well of the plate, the mixture is incubated for 15 min. with shaking, and luminescence is measured on an Envision (Perkin Elmer) plate reader.

Row | Compound | pEC50
1 | COC(=O)/C=C/c1cccc(N(C(=O)C2CCCCC2)C(C)C23CCC(c4nc(C)no4)(CC2)CC3)c1 (single isomer, unassigned) [Example 46, Methyl (E)-3-(3-(N-(1-(4-(3-methyl-1,2,4-oxadiazol-5-yl)bicyclo[2.2.2]octan-1-yl)ethyl)cyclohexanecarboxamido)phenyl)acrylate] | 6.52
2 | COC(=O)/C=C/c1cccc(N(C(=O)C2CCCCC2)C(C)C23CCC(c4nc(C)no4)(CC2)CC3)c1 (single isomer, unassigned) [Example 47, Methyl (E)-3-(3-(N-(1-(4-(3-methyl-1,2,4-oxadiazol-5-yl)bicyclo[2.2.2]octan-1-yl)ethyl)cyclohexanecarboxamido)phenyl)acrylate] | 6.82
3 | CN(C)c1ccc(C23CCC(CN(C(=O)C4CCCCC4)c4cccc(/C=C/C(=O)O)c4)(CC2)CC3)cc1 [Example 2, (E)-3-(3-(N-((4-(4-(dimethylamino)phenyl)bicyclo[2.2.2]octan-1-yl)methyl)cyclohexanecarboxamido)phenyl)acrylic Acid] | 5.82
4 | COC(=O)/C=C/c1cccc(N(CC23CCC(c4ccc(N5CCOCC5)cc4)(CC2)CC3)C(=O)C2CCCCC2)c1 [Example 3, (E)-methyl 3-(3-(N-((4-(4-morpholinophenyl)bicyclo[2.2.2]octan-1-yl)methyl)cyclohexanecarboxamido)phenyl)acrylate] | 6.78
5 | COC(=O)/C=C/c1cccc(N(CC23CCC(c4ccc(N5CCCC5)cc4)(CC2)CC3)C(=O)C2CCCCC2)c1 [Example 4, (E)-methyl 3-(3-(N-((4-(4-(pyrrolidin-1-yl)phenyl)bicyclo[2.2.2]octan-1-yl)methyl)cyclohexanecarboxamido)phenyl)acrylate] | 6.28
6 | COC(=O)/C=C/c1cccc(N(CC23CCC(c4ccc(N(C)C)cc4)(CC2)CC3)C(=O)C2CCOCC2)c1 [Example 6, Methyl (E)-3-(3-(N-((4-(4-(dimethylamino)phenyl)bicyclo[2.2.2]octan-1-yl)methyl)tetrahydro-2H-pyran-4-carboxamido)phenyl)acrylate] | 6.67
7 | COC(=O)/C=C/c1cccc(N(CC23CCC(c4ccccc4)(CC2)CC3)C(=O)C2CCCCC2)c1 [Example 7, Methyl (E)-3-(3-(N-((4-phenylbicyclo[2.2.2]octan-1-yl)methyl)cyclohexanecarboxamido)phenyl)acrylate] | 6.40
8 | COC(=O)/C=C/c1cccc(N(CC23CCC(c4ccc5c(cnn5C)c4)(CC2)OC3)C(=O)C2CCOCC2)c1 [Example 8, (E)-Methyl 3-(3-(N-((1-(1-methyl-1H-indazol-5-yl)-2-oxabicyclo[2.2.2]octan-4-yl)methyl)tetrahydro-2H-pyran-4-carboxamido)phenyl)acrylate] | 5.80
9 | COC(=O)/C=C/c1cccc(N(CC23CCC(c4ccc5c(cnn5C)c4)(CC2)OC3)C(=O)C2CCN(C)CC2)c1 [Example 9, (E)-Methyl 3-(3-(1-methyl-N-((1-(1-methyl-1H-indazol-5-yl)-2-oxabicyclo[2.2.2]octan-4-yl)methyl)piperidine-4-carboxamido)phenyl)acrylate] | 5.33
10 | COC(=O)/C=C/c1cccc(N(CC23CCC(c4ccc(OC)cc4)(CC2)OC3)C(=O)C2CCCCC2)c1 [Example 10, Methyl (E)-3-(3-(N-((1-(4-methoxyphenyl)-2-oxabicyclo[2.2.2]octan-4-yl)methyl)cyclohexanecarboxamido)phenyl)acrylate] | 6.50
11 | COC(=O)/C=C(\C)c1cccc(N(CC23CCC(c4ccc(N5CCOCC5)cc4)(CC2)CC3)C(=O)C2CCCCC2)c1 [Example 14, Methyl (E)-3-(3-(N-((4-(4-morpholinophenyl)bicyclo[2.2.2]octan-1-yl)methyl)cyclohexanecarboxamido)phenyl)but-2-enoate] | 5.94
12 | COC(=O)/C=C(\C)c1cccc(N(CC23CCC(c4nc(C)no4)(CC2)CC3)C(=O)C2CCCCC2)c1 [Example 19, Methyl (E)-3-(3-(N-((4-(3-methyl-1,2,4-oxadiazol-5-yl)bicyclo[2.2.2]octan-1-yl)methyl)cyclohexanecarboxamido)phenyl)but-2-enoate] | 6.26
13 | COC(=O)/C=C/c1cccc(N(CC23CCC(c4nc(C)no4)(CC2)CC3)C(=O)C2CCCCC2)c1 [Example 20, Methyl (E)-3-(3-(N-((4-(3-methyl-1,2,4-oxadiazol-5-yl)bicyclo[2.2.2]octan-1-yl)methyl)cyclohexanecarboxamido)phenyl)acrylate] | 7.25

Continued, values first:

Row | pEC50 | Compound
14 | 7.11 | COC(=O)/C=C/c1cccc(N(CC23CCC(c4ccc(N(C)C)cc4)(CC2)CC3)C(=O)C2CCCCC2)c1 [Example 1, Methyl (E)-3-(3-(N-((4-(4-(dimethylamino)phenyl)bicyclo[2.2.2]octan-1-yl)methyl)cyclohexanecarboxamido)phenyl)acrylate]
15 | 5.56 | COC(=O)C1=Cc2cccc(N(CC34CCC(c5ccc(N6CCOCC6)cc5)(CC3)CC4)C(=O)C3CCCCC3)c2CC1 [Example 11, Methyl 5-(N-((4-(4-morpholinophenyl)bicyclo[2.2.2]octan-1-yl)methyl)cyclohexanecarboxamido)-3,4-dihydronaphthalene-2-carboxylate]
16 | 5.59 | COC(=O)C1=Cc2cccc(N(CC34CCC(c5ccc(N(C)C)cc5)(CC3)CC4)C(=O)C3CCCCC3)c2CC1 [Example 12, methyl 5-(N-((4-(4-(dimethylamino)phenyl)bicyclo[2.2.2]octan-1-yl)methyl)cyclohexanecarboxamido)-3,4-dihydronaphthalene-2-carboxylate]
17 | 6.04 | CCN(CC)c1ccc(C23CCC(CN(C(=O)C4CCCCC4)c4cccc5c4CCC(C(=O)OC)=C5)(CC2)CC3)cc1 [Example 13, methyl 5-(N-((4-(4-(diethylamino)phenyl)bicyclo[2.2.2]octan-1-yl)methyl)cyclohexanecarboxamido)-3,4-dihydronaphthalene-2-carboxylate]
18 | 6.61 | COC(=O)/C=C/c1cccc(N(CC23CCC(c4ccc(OC)cc4)(CC2)CC3)C(=O)C2CCCCC2)c1 [Example 15, Methyl (E)-3-(3-(N-((4-(4-methoxyphenyl)bicyclo[2.2.2]octan-1-yl)methyl)cyclohexanecarboxamido)phenyl)acrylate]
19 | 6.24 | COC(=O)/C=C(\C)c1cccc(N(CC23CCC(c4ccc(OC)cc4)(CC2)CC3)C(=O)C2CCCCC2)c1 [Example 16, Methyl (E)-3-(3-(N-((4-(4-methoxyphenyl)bicyclo[2.2.2]octan-1-yl)methyl)cyclohexanecarboxamido)phenyl)but-2-enoate]
20 | 5.65 | COc1ccc(C23CCC(CN(C(=O)C4CCCCC4)c4cccc5c4CCC(C(=O)O)=C5)(CC2)CC3)cc1 [Example 17, 5-(N-((4-(4-methoxyphenyl)bicyclo[2.2.2]octan-1-yl)methyl)cyclohexanecarboxamido)-3,4-dihydronaphthalene-2-carboxylic Acid]
21 | 5.74 | COC(=O)C1=Cc2cccc(N(CC34CCC(c5ccc(OC)cc5)(CC3)CC4)C(=O)C3CCCCC3)c2CC1 [Example 18, Methyl 5-(N-((4-(4-methoxyphenyl)bicyclo[2.2.2]octan-1-yl)methyl)cyclohexanecarboxamido)-3,4-dihydronaphthalene-2-carboxylate]
